Measurements published in patent EP4775582A1, “MACROCYCLIC COMPOUND AND ANTIBODY-DRUG CONJUGATE THEREOF” (Genfleet Therapeutics (Shanghai) Inc., priority 2023, dated 2025).

Columns and labels:
Format in all cases: cell-based, human
NCI-H441 cells = experiment: 3D cell proliferation assay (CellTiter Glo-3D), NCI-H441; settings: Homo sapiens, 120 h, NCI-H441 cells (KRAS G12V), 2% FBS, 5 days, read-out: H441 AP IC50
Description: (§1) The cells were digested with trypsin (containing EDTA), collected in their respective low-serum complete media containing 2% FBS (for MIA Paca-2 cell culture: DMEM + 2% FBS + 0.5% Horse serum + 1% PS), and counted. After the cell density was adjusted as required, 200 MIA PaCa-2 cells, 800 AsPC-1 cells, 800 NCI-H441 cells, or 400 NCI-H1975 cells per well were seeded into a 384-well cell culture plate, with the volume of the medium in each well being 45 µL. The cell culture plate was incubated in an incubator at 37 °C with 5% CO2 overnight. […] On the day after cell seeding, 5 µL of the 10× compound stock solution was added to each cell culture well. […] In addition to the compound-treated wells described above, cell-containing DMSO control wells (with 5 µL of the complete medium containing 1% DMSO added to each well) and cell-free medium control wells (containing 50 µL of the complete medium with 2% FBS) were also set. The culture plate was incubated in an incubator at 37 °C with 5% CO2 for another 5 days, and then 30 µL of CellTiter-Glo working solution was added to each well. The mixture was well mixed, incubated for 30 min, left to stand at room temperature for 30 min, and then transferred to a white-bottomed, opaque 384-well assay plate at 40 µL/well. […] Using an XLfit software, the IR (%) values were plotted against the logarithm of the compound concentrations, and the dose-response curves were fitted using the four-parameter method to calculate the IC50 values.

AsPC-1 p-ERK = experiment: Cell p-ERK assay (HTRF), AsPC-1 cells; settings: Homo sapiens, ASPC1, 3 h, read-out: AsPC-1 p-ERK IC50(nM)
Description: (§2) The cells were digested with trypsin (containing EDTA), collected in their corresponding complete media, and counted. The density of the cell suspensions was adjusted with their corresponding complete media, and 10000 AsPC-1 cells or 20000 NCI-H441 cells per well were seeded into a 96-well cell culture plate, with the volume of the medium in each well being 80 µL. The cell culture plate was incubated in an incubator at 37 °C with 5% CO2 overnight. […] On the day after cell seeding, 20 µL of the 5× compound stock solution was added to each cell culture well. […] In addition to the compound-treated wells described above, cell-containing DMSO control wells were also set. A complete medium containing 0.5% DMSO was added at 20 µL/well. After the mixture was well mixed, the culture plate was incubated in the incubator at 37 °C with 5% CO2 for another 3 h. The medium was then removed from the culture wells, and 50 µL of cell lysis buffer (from Advance ERK phospho-T202/Y204 kit) was added to each well. The mixture was well mixed and incubated for 30 min. Then, 16 µL of the mixture was transferred to a white-bottomed, opaque 96-well assay plate, and separately, 16 µL of cell lysis buffer was added to additional wells (serving as blank wells) in the assay plate. After the transfer was completed, 4 µL of p-ERK HTRF antibody mixture (from Advance ERK phospho-T202/Y204 kit) was added to each well of the assay plate, followed by a 4-hour incubation. […] Using an XLfit software, the IR (%) values were plotted against the logarithm of the compound concentrations, and the dose-response curves were fitted using the four-parameter method to calculate the IC50 values.

AsPC-1 cells = experiment: 3D cell proliferation assay (CellTiter Glo-3D), AsPC-1; settings: Homo sapiens, ASPC1, 120 h, read-out: AsPC-1 AP IC50(nM)
Description: as §1

H441 p-ERK = experiment: Cell p-ERK assay (HTRF), NCI-H441 cells; settings: Homo sapiens; NCI-H441 cells (KRAS G12V), 3 h incubation
Description: as §2

| SMILES | IC50 (NCI-H441 cells) [nM] | IC50 (AsPC-1 p-ERK) [nM] | IC50 (AsPC-1 cells) [nM] | IC50 (H441 p-ERK) [nM] |
| --- | --- | --- | --- | --- |
| CCn1c(-c2cc(C#CCN3CCN(C(=O)CN)CC3)cnc2[C@H](C)OC)c2c3cc(ccc31)-c1csc(n1)[C@@H](OCCN(C)C)[C@H](NC(=O)[C@H]1[C@H](C)[C@@H]1C)C(=O)N1CCC[C@H](N1)C(=O)OCC(C)(C)C2 (atropisomer, axis not shown; (Ra)) [Compound Z165] | 24.4 | 10.3 | 10 | 13.7 |
| CCn1c(-c2cc(C#CCN3CCS(=O)(=O)CC3)cnc2[C@H](C)OC)c2c3cc(ccc31)-c1csc(n1)C[C@H](NC(=O)[C@@H]1[C@@H](C)[C@H]1CO)C(=O)N1CCC[C@H](N1)C(=O)OCC(C)(C)C2 (atropisomer, axis not shown; (Ra)) [Compound Z7-1, (1R,2R,3S)-N-((6^3S,4S,Z)-(Ra)-1^2-(5-(3-(1,1-dioxidothiomorpholino)prop-1-yn-1-yl)-2-((S)-1-methoxyethyl)pyridin-3-yl)-1^1-ethyl-10,10-dimethyl-5,7-dioxo-6^1,6^2,6^3,6^4,6^5,6^6-hexahydro-1^1H-8-oxa-2(4,2)-thiazola-1(5,3)-indola-6(1,3)-pyridazinacycloundecaphane-4-yl)-2-(hydroxymethyl)-3-methylcyclopropane-1-carboxamide] | 0.32 | 0.51 | 0.52 | 0.5 |
| COCCn1c(-c2cc(C#CCN3CCC(C#N)(CO)CC3)cnc2[C@H](C)OC)c2c3cc(ccc31)-c1csc(n1)C[C@H](NC(=O)[C@H]1[C@@H]3COC[C@@H]31)C(=O)N1CCC[C@H](N1)C(=O)OCC(C)(C)C2 (atropisomer, axis not shown) [Compound Z28, (1R,5S,6r)-N-((6^3S,4S,Z)-1^2-(5-(3-(4-cyano-4-hydroxymethylpiperidin-1-yl)prop-1-yn-1-yl)-2-((S)-1-methoxyethyl)pyridin-3-yl)-1^1-(methoxyethyl)-10,10-dimethyl-5,7-dioxo-6^1,6^2,6^3,6^4,6^5,6^6-hexahydro-1^1H-8-oxa-2(4,2)-thiazola-1(5,3)-indola-6(1,3)-pyridazinacycloundecaphane-4-yl)-3-oxabicyclo[3.1.0]hexane-6-carboxamide] | 0.4 | 0.42 | 0.37 | 0.48 |
| CCn1c(-c2cc(C#CCN3CCS(=O)(=O)CC3)cnc2[C@H](C)OC)c2c3cc(ccc31)-c1csc(n1)C[C@H](NC(=O)[C@@H](NC)C1CCCC1)C(=O)N1CCC[C@H](N1)C(=O)OCC(C)(C)C2 (atropisomer, axis not shown; (Ra)) [Compound Z15, (2S)-2-methylamino-2-cyclopentyl-N-((6^3S,4S,Z)-(Ra)-1^2-(5-(3-(1,1-dioxidothiomorpholino)prop-1-yn-1-yl)-2-((S)-1-methoxyethyl)pyridin-3-yl)-1^1-ethyl-10,10-dimethyl-5,7-dioxo-6^1,6^2,6^3,6^4,6^5,6^6-hexahydro-1^1H-8-oxa-2(4,2)-thiazola-1(5,3)-indola-6(1,3)-pyridazinacycloundecaphane-4-yl)acetamide] | 0.35 | 0.42 | 0.31 | 0.24 |

Further compounds by falling IC50 (NCI-H441 cells), results first:

| IC50 (NCI-H441 cells) [nM] | IC50 (AsPC-1 p-ERK) [nM] | IC50 (AsPC-1 cells) [nM] | IC50 (H441 p-ERK) [nM] | SMILES |
| --- | --- | --- | --- | --- |
| 3.26 | 1.83 | 6.05 | 1.03 | CCn1c(-c2cc(C#CCN3CCCOCC3)cnc2[C@H](C)OC)c2c3cc(ccc31)-c1csc(n1)C[C@H](NC1=NOC(CC)(CC)C1)C(=O)N1CCC[C@H](N1)C(=O)OCC(C)(C)C2 (atropisomer, axis not shown; (Ra)) [Compound Z279, (6^3S,4S,Z)-(Ra)-1^2-(5-(3-(1,4-oxazepan-4-yl)prop-1-yn-1-yl)-2-((S)-1-methoxyethyl)pyridin-3-yl)-1^1-ethyl-10,10-dimethyl-4-((5,5-diethyl-4,5-dihydroisoxazol-3-yl)amino)-6^1,6^2,6^3,6^4,6^5,6^6-hexahydro-1^1H-8-oxa-2(4,2)-thiazola-1(5,3)-indola-6(1,3)-pyridazinacycloundecaphane-5,7-dione] |
| 3.02 | 1.56 | 2.7 | 1.47 | CO[C@@H](C)c1ncc(C#CCN2CCN(C(=O)CN)CC2)cc1-c1c2c3cc(ccc3n1C(C)C)-c1csc(n1)C[C@H](NC(=O)[C@H]1[C@@H]3COC[C@@H]31)C(=O)N1CCC[C@H](N1)C(=O)OCC(C)(C)C2 (atropisomer, axis not shown; (Ra)) [Compound Z84, (1R,5S,6r)-N-((6^3S,4S,Z)-(Ra)-1^2-(5-(3-(4-glycylpiperazin-1-yl)prop-1-yn-1-yl)-2-((S)-1-methoxyethyl)pyridin-3-yl)-1^1-isopropyl-10,10-dimethyl-5,7-dioxo-6^1,6^2,6^3,6^4,6^5,6^6-hexahydro-1^1H-8-oxa-2(4,2)-thiazola-1(5,3)-indola-6(1,3)-pyridazinacycloundecaphane-4-yl)-3-oxabicyclo[3.1.0]hexane-6-carboxamide] |
| 2.04 | 2.08 | 2.59 | 1.51 | CCn1c(-c2cc(C#CCN3CCN(C(=O)CNC)CC3)cnc2[C@H](C)OC)c2c3cc(ccc31)-c1csc(n1)C[C@H](NC(=O)[C@H]1[C@@H]3COC[C@@H]31)C(=O)N1CCC[C@H](N1)C(=O)OCC(C)(C)C2 (atropisomer, axis not shown; (Ra)) [Compound Z164] |
| 0.13 | 0.12 | 0.16 | 0.18 | CCn1c(-c2cc(C#CCN3CCCN(C(=O)CO)CC3)cnc2[C@H](C)OC)c2c3cc(ccc31)-c1csc(n1)C[C@H](NC(=O)[C@H]1[C@H](C)[C@@H]1C)C(=O)N1CCC[C@H](N1)C(=O)OCC(C)(C)C2 (atropisomer, axis not shown; (Ra)) [Compound Z10, (1r,2R,3S)-N-((6^3S,4S,Z)-1^1-ethyl-(Ra)-1^2-(5-(3-(4-(2-hydroxyacetyl)-1,4-diazepin-1-yl)prop-1-yn-1-yl)-2-((S)-1-methoxyethyl)pyridin-3-yl)-10,10-dimethyl-5,7-dioxo-6^1,6^2,6^3,6^4,6^5,6^6-hexahydro-1^1H-8-oxa-2(4,2)-thiazola-1(5,3)-indola-6(1,3)-pyridazinacycloundecaphane-4-yl)-2,3-dimethylcyclopropane-1-carboxamide] |
| 0.06 | 0.08 | 0.03 | 0.1 | CCn1c(-c2cc(C#CCN3CCC(C#N)(CO)CC3)cnc2[C@H](C)OC)c2c3cc(ccc31)-c1csc(n1)C[C@H](NC(=O)[C@H]1[C@H](C)[C@@H]1C)C(=O)N1CCC[C@H](N1)C(=O)OCC(C)(C)C2 (atropisomer, axis not shown; (Ra)) [Compound Z23, (1r,2R,3S)-N-((6^3S,4S,Z)-(Ra)-1^2-(5-(3-(4-cyano-4-(hydroxymethyl)piperidin-1-yl)prop-1-yn-1-yl)-2-((S)-1-methoxyethyl)pyridin-3-yl)-1^1-ethyl-10,10-dimethyl-5,7-dioxo-6^1,6^2,6^3,6^4,6^5,6^6-hexahydro-1^1H-8-oxa-2(4,2)-thiazola-1(5,3)-indola-6(1,3)-pyridazinacycloundecaphane-4-yl)-2,3-dimethylcyclopropane-1-carboxamide] |
